Molecular target: T1, recombinant human BCAT1 (Homo sapiens, UniProt P54687)
T1 construct: purchased Abcam
T1 sequence (P54687 1-386): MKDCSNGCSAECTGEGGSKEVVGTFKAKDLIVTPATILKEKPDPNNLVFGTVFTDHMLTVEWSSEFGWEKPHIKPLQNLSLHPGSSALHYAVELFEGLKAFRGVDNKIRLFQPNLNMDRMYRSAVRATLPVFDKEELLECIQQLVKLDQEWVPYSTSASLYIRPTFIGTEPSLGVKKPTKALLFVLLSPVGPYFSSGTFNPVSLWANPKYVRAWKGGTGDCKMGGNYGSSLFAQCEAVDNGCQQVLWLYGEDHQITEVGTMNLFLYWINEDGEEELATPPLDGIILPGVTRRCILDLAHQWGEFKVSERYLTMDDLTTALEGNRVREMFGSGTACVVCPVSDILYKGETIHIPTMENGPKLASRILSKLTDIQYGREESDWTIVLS
Assay: BCAT1 aminotransferase enzymatic assay (continuous fluorometric)
Type: biochemical
Details: 100 ng recombinant protein
Excerpt: To gain more insights into the role of BCAT enzymes in macrophages, we set out to investigate these in human monocyte-derived macrophages (hMDMs) by subjecting these cells to RNA-sequencing (Fig. 1a). […] To examine the role of BCAT1 in macrophage metabolism and inflammatory diseases, we identified a novel BCAT1 inhibitor, ERG240, using molecular modelling approaches based on the X-ray crystal structures of BCAT1 (ref. [22]). ERG240 is a water-soluble structural analogue of leucine (Fig. 1b). Its ability to suppress the BCAT1 aminotransferase activity was measured in a continuous fluorometric assay (ref. [23] and see Supplementary Methods). […]
Figure 1 BCAT1 expression and inhibition in human macrophages. […] (d) Relative expression of IRG1, HIF1A and IL1B measured by qRT-PCR in control, ERG240-treated (20 mM, 3 h), LPS treated (100 ng ml^−1, 3 h), and LPS+ERG240 treated (LPS, 100 ng ml^−1; ERG240, 20 mM for 3 h) hMDMs. ns, non-significant. […]
Finall y, th e libraries were size selected using AM Pure XP Beads (Beckman Coulter) purified and their quality was checked using Agilent 2100 Bioanalyzer. Samples were randomized to avoid batch effects and multiplexed libraries wer e run on a single lan e (6 samples/lane) of the HiSeq 2500 platform (Illumina) to generate 100bp paired-end reads. […]
respectivel y. RNA-seq reads were aligned to human (hg19) or mouse (mm10) reference genomes using tophat2. […]

## CC(=O)C(C)CCC(=O)O (stereo not shown) [ERG240]
  IC50: 0.1 to 1 nM
